How the values were obtained:
[1] = test system: Euphorbia heterophylla; assay: Field trial, weed efficacy, post applied; format: in vivo; details: Atrazine 1000 g ai/ha; application at 5 leaf stage; assessment 14 days after application
[2] = molecular target: PfHPPDEvo40 (Pseudomonas sp., UniProt P80064, A172V/A339E/A53E/D148E/D45N/E105D/E287Q/E300V/E334P/F143Y/G286D/G335S/H150N/H254A/H63N/I158V/I187A/I249V/K92N/L18F/N24G/N280D/S245T/S257K/S301E/T205S/V65I); assay: Brown color assay, HPPD inhibitor tolerance of E. coli HPPD extracts; details: extract titrated on 250 uM inhibitor; brown pigment formation
[3] = test system: Amaranthus retroflexus; details: Glufosinate-ammonium 500 g ai/ha; application at 6 leaf stage; assessment 14 days after application
[4] = test system: Ipomoea aristolochiaefolia; details: Glyphosate 960 g ai/ha; application at 6 leaf stage; assessment 14 days after application
[5] = test system: Digitaria horizontalis; assay: Field trial, weed efficacy, post applied; format: in vivo; details: application at 2 tillers, assessment 14 days after application

PfHPPDEvo40, sequence (P80064 other isoform, or with tags, fused parts or gaps with the stated changes): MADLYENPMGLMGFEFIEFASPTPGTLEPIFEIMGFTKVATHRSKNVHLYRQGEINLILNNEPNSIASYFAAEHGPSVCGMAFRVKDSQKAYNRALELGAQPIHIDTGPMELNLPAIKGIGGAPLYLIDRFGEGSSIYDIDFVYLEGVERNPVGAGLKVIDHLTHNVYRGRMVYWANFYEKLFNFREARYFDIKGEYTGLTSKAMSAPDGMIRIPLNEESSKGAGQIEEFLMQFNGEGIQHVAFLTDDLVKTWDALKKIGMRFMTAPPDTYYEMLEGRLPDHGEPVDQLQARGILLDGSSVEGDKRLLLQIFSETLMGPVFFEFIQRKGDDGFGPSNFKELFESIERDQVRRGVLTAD

## CCNc1nc(Cl)nc(NC(C)C)n1 [Atrazine, reference compound]
[1]
  Efficacy (%) Euphorbia heterophylla: 74%

## CS(=O)(=O)c1cc(C(F)(F)F)ccc1C(=O)C(C#N)C(=O)C1CC1 (stereo not shown) [DKN, diketonitrile]
[2]
  tolerance of variant PfHPPDEvo40 to the inhibitor compared to PfHPPD336W: improved tolerance

## CP(=O)(O)CCC(N)C(=O)O (stereo not shown) [Glufosinate-ammonium, reference compound]
[3]
  Efficacy (%) Amaranthus retroflexus: 33%

## O=C(O)CNCP(=O)(O)O [Glyphosate, reference compound]
[4]
  Efficacy (%) Ipomoea aristolochiaefolia: 70%

## CSc1nnc(C(C)(C)C)c(=O)n1N [Metribuzin]
[5]; Metribuzin 240 g ai/ha
  Efficacy (%) Digitaria horizontalis: 15%
[5]; Metribuzin 480 g ai/ha
  Efficacy (%) Digitaria horizontalis: 35%

## CS(=O)(=O)c1ccc(C(=O)C2C(=O)CCCC2=O)c(Cl)c1COCC(F)(F)F [TBT, tembotrione]
[2]
  tolerance of variant PfHPPDEvo40 to the inhibitor compared to PfHPPD336W: improved tolerance

— patent US10159249B2 (BAYER CROPSCIENCE AKTIENGESELLSCHAFT, priority 2013, dated 2018)
